From ChEMBL document CHEMBL5465560, “Selectivity Literature for EUbOPEN Chemogenomic Library” (2024)

Experiments:
[1] = molecular target: T1, Testis-specific serine/threonine-protein kinase 2 (Homo sapiens) (UniProt Q96PF2); test: Selectivity interaction (ProQinase) EUB0000171b TSSK2
T1 sequence (whole entry): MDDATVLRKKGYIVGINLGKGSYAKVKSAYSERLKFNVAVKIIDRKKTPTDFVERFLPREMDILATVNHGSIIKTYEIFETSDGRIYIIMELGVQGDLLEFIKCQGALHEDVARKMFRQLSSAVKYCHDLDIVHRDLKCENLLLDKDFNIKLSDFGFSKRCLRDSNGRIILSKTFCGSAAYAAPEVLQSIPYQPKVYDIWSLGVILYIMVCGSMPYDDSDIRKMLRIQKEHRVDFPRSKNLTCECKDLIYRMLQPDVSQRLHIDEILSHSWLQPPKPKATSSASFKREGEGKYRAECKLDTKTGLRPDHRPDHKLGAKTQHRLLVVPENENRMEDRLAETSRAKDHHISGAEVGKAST

[2] = molecular target: T2, Ephrin type-A receptor 1 (Homo sapiens) (UniProt P21709); test: Selectivity interaction (SelectScreen profiling (Invitrogen)) EUB0000607a EPHA1; details: at 2 µM
T2 sequence (whole entry): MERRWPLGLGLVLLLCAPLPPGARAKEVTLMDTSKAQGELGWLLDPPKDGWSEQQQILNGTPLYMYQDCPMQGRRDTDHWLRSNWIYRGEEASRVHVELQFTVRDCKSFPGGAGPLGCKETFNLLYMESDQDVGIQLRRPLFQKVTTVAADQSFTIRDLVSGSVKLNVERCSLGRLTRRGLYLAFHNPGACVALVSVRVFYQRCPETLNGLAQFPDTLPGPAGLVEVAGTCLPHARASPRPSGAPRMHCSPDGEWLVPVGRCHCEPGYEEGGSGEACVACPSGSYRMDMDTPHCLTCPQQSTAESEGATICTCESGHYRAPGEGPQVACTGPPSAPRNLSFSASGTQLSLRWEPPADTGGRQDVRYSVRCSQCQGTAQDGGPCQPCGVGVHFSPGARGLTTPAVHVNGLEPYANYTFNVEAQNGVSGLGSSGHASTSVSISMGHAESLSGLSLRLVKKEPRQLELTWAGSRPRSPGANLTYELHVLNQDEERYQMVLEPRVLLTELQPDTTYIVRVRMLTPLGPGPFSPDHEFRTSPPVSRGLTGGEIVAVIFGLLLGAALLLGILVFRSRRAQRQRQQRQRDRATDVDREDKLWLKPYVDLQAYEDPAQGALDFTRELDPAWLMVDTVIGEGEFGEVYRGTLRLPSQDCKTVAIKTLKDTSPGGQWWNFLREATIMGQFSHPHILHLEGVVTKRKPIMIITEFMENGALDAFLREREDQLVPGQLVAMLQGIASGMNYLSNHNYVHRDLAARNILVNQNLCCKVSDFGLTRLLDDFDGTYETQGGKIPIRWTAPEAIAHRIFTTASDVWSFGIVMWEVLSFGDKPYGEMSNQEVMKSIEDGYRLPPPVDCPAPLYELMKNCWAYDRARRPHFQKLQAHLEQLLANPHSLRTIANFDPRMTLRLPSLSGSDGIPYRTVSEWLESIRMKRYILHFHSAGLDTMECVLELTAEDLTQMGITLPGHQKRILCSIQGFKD

[3] = molecular target: T3, TGF-beta receptor type-1 (Homo sapiens) (UniProt P36897); test: Selectivity interaction (KinomeScan (DiscoverX)) EUB0001619a TGFBR1; details: at 1 µM
T3 sequence (whole entry): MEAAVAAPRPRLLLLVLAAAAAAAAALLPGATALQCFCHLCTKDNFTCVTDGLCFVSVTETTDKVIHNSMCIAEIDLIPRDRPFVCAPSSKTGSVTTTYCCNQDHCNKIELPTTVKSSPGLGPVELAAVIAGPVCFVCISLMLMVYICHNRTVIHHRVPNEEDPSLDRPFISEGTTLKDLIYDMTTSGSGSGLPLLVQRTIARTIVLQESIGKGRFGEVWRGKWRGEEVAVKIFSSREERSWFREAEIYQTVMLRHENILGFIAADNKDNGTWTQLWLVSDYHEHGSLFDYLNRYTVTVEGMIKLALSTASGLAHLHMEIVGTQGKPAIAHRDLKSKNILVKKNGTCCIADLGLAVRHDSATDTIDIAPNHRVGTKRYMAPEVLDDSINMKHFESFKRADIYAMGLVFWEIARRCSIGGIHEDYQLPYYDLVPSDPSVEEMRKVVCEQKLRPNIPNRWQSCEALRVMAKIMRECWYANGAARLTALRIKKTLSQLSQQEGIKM

C=CC(=O)Nc1cccc(C(=O)Nc2ccc(Nc3cc(-c4[nH]c(SC)nc4C)ccn3)cc2)c1
% of control ([1]; at 1 µM): 90% | % of control ([1]; at 5 µM): 97%

CNC(=O)Nc1ccc(-c2nc(N3CC4CCC(C3)O4)c3cnn(C4CCC5(CC4)OCCO5)c3n2)cc1
% of inhibition [2]: 3%

N#Cc1cccc(-c2c[nH]c3ncnc(N4CCOCC4)c23)c1
% of control [3]: 79%
